The source of these data is ChEMBL document CHEMBL1201862, “PubChem BioAssay data set” (2004).

Assay [1] deals with Aspartyl aminopeptidase (Plasmodium falciparum 3D7, UniProt Q8I2J3).
Assay [2] addresses Procathepsin L (Homo sapiens, UniProt P07711).
Assay [3] has as its target T1, Rac GTPase-activating protein 1 (Homo sapiens, UniProt Q9H0H5).
T1 sequence (Q9H0H5 whole entry): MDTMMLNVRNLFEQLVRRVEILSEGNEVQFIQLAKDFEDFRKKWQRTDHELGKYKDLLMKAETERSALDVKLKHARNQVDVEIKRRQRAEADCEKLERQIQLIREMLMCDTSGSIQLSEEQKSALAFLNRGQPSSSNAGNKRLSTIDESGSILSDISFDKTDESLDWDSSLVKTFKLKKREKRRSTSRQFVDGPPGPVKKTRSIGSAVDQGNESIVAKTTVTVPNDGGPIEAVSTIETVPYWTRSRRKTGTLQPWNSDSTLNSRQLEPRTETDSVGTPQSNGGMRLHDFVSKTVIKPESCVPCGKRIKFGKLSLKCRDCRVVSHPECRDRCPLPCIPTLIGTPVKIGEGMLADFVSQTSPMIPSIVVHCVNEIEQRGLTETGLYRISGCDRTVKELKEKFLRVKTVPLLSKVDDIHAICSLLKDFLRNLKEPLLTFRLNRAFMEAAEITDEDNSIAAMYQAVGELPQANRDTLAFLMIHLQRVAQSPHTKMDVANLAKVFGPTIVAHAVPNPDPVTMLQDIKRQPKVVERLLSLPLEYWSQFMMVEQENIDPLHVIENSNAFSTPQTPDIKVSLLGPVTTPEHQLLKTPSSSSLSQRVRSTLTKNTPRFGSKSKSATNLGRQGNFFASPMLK
The assay is described as follows: MgcRacGAP GTPase-activating activity inhibitors, confirmation, biochemical, ADP Hunter fluorescence, primary and confirmatory (AID 624330). Format: functional.

In assay [4] the target is T2, Dual specificity protein phosphatase 3 (Homo sapiens, UniProt P51452). The assay is described as follows: SAR VHR1 Fluorescent Assay for In Vitro dose response studies. [Related pubchem assays (depositor defined):AID1654, AID1661, AID1878, AID1992, AID2004, AID2070, AID2085]. Format: functional.
T2 sequence (P51452 whole entry): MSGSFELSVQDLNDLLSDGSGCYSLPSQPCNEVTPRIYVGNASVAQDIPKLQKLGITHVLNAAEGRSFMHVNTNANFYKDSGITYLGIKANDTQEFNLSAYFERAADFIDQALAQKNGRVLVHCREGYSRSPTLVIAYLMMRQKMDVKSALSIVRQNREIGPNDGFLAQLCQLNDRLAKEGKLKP
Assay [5] concerns the target T3, Tyrosine-protein phosphatase non-receptor type 7 (Homo sapiens, UniProt P35236).
T3 sequence (P35236 whole entry): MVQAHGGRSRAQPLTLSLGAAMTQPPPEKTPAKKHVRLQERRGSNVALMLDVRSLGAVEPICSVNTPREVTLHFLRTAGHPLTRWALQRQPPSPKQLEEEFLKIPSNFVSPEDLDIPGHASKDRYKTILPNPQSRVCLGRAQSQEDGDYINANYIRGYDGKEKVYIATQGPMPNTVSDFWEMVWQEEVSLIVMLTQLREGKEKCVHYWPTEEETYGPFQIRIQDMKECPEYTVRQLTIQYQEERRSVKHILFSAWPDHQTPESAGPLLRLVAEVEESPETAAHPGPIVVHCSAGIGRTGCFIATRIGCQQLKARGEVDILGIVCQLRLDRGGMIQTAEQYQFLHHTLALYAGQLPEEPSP
Kind of assay: redox-dependent HePTP inhibition, mechanism study, biochemical, fluorescence (AID 2068). Format: functional.

Assay [6] deals with Dual specificity protein phosphatase 6 (Rattus norvegicus, UniProt Q64346). Format: functional.
Chain of Dual specificity protein phosphatase 6 (Q64346 whole entry): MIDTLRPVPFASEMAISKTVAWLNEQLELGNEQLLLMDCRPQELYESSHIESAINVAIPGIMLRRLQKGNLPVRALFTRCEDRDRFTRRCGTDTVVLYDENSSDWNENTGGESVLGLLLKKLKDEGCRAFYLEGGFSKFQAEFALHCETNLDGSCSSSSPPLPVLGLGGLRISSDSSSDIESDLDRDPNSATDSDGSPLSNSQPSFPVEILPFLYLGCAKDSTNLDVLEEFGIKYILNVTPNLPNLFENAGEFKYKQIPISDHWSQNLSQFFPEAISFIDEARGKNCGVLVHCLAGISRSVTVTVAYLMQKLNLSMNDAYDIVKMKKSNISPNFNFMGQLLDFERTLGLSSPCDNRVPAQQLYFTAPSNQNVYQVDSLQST
Assay [7] has as its target T2, Dual specificity protein phosphatase 3. The assay is described as follows: MOA VHR1 Fluorescent secondary assay for identification of redox-state modulating compounds. [Related pubchem assays (depositor defined):AID1654, AID1661, AID1878, AID1957].
For assay [8] the target is unchanged. The assay is described as follows: SAR VHR1 absorbance Assay for In Vitro dose response studies. [Related pubchem assays (depositor defined):AID1654, AID1661, AID1878, AID1992, AID2004].
In assay [9] the target is T4, Hexokinase HKDC1 (Homo sapiens, UniProt Q2TB90).
T4 sequence (Q2TB90 whole entry): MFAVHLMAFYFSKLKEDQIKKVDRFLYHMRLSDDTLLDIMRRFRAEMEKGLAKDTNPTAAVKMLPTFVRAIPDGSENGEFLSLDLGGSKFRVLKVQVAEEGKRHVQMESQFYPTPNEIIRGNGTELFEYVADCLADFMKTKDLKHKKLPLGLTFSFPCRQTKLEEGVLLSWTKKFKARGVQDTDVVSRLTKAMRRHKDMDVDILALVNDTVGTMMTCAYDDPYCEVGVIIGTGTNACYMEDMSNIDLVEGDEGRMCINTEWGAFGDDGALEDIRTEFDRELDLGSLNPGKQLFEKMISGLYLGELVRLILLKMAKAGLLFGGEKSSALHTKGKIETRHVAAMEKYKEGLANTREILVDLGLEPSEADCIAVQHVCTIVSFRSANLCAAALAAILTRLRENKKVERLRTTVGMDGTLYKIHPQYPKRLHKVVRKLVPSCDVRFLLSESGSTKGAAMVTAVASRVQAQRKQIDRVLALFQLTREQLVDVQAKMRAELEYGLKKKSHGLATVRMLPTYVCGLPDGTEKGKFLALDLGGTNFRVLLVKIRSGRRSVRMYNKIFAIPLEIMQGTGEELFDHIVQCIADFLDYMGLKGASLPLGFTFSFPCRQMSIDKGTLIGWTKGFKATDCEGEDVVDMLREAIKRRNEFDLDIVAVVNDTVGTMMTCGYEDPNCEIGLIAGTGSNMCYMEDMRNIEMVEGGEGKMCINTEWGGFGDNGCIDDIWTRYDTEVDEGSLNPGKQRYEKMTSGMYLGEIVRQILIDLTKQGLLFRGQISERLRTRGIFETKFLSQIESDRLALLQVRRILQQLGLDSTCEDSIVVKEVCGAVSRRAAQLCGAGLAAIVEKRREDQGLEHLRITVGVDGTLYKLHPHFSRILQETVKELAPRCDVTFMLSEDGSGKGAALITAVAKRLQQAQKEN
Kind of assay: HKDC1 hexokinase inhibitors, dose response, biochemical, W721R variant (AID 504729). Format: functional.

The nature of assay [10]: inhibitors of SNCA 5'UTR-driven translation, confirmation, luminescence, H4 neuroglioblastoma cells, dose confirmation (AID 2454).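 Further: H4 neuroglioblastoma cells carrying an alpha-synuclein 5'UTR luciferase reporter; potency for inhibition of the luciferase signal.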 Format: functional, cell-based.
Assay [11] in a line: Luminescence-based counterscreen assay for KLF5 inhibitors: dose response cell-based high throughput screening assay to identify cytotoxic compounds using the IEC-6 intestinal epithelial cell line. [Related pubchem assays: 1700 (Primary screen.), 1834 (Confirmation screen.), 1858 (Summary AID.), 1905 (Counterscreen.)]. Format: functional. Background: A counterscreen serves to expose hits that act by an unwanted route or on another target.

A short description of assay [12]: inhibitors of firefly luciferase expression or activity, dose response, H4 neuroglioma cells, luminescence (AID 1990). Format: functional, cell-based.
Assay [13] is described as follows: Luminescence Cell-Based Dose Response HTS to Identify Inhibitors of 5'UTR Stem-Loop Driven Prion Protein mRNA Translation in H4 Neuroglioblastoma Cells. [Related pubchem assays: 1827 (Project Summary), 1813 (Primary HTS)]. Format: functional.
Assay [14] addresses T5, Histone-lysine N-methyltransferase NSD2 (Homo sapiens, UniProt O96028).
T5 sequence (O96028 whole entry): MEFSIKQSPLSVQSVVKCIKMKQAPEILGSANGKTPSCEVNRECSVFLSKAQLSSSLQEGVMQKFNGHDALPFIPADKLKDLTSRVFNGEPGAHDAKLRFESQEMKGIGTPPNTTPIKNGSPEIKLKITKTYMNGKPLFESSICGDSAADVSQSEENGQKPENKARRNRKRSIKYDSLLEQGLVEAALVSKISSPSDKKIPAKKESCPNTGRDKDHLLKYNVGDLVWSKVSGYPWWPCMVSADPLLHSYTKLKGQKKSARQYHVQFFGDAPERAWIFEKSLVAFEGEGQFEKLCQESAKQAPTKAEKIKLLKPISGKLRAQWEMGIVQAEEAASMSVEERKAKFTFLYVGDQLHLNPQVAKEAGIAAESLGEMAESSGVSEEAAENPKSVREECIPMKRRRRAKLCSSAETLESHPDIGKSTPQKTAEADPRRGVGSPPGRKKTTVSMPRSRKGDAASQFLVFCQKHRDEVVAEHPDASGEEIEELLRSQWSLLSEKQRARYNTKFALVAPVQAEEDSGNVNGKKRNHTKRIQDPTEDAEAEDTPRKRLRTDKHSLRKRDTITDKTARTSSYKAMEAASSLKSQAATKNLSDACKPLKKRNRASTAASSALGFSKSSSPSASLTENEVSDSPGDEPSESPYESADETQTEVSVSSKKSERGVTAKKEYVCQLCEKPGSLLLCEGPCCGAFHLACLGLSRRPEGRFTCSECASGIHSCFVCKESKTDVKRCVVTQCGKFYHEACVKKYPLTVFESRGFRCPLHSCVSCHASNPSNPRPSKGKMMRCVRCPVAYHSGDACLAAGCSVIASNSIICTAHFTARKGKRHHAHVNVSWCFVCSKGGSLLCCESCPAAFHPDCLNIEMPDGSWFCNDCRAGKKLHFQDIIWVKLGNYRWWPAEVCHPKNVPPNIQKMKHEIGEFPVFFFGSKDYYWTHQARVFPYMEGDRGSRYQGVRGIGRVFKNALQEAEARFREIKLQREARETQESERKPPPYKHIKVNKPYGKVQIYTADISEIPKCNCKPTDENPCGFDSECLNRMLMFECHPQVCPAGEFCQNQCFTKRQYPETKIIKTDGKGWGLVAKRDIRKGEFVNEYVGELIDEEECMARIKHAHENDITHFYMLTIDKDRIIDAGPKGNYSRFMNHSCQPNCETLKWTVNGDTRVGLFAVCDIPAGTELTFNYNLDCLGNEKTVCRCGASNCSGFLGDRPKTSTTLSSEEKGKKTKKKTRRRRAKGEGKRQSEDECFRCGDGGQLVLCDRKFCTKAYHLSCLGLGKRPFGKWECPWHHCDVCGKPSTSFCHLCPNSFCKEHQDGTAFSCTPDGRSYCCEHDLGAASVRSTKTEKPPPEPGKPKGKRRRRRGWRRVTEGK
Format: biochemical.

The nature of assay [15]: cytotoxicity in HEK-293T cells, dose response, cytotoxicity control for TCR NF-kB inhibitor project, luminescence, T-cell screen hits (AID 489026).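 Further: cells exposed to compound about 14 hours before the viability readout.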 Format: functional, cell-based.
Assay [16] in a line: cells. Format: functional, cell-based.
A short description of assay [17]: luciferase reporter signal reduction – luminescence, H4-C neuroglioblastoma cells, dose response (AID 2458).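 Further: H4 neuroglioblastoma cells stably carrying a luciferase reporter gene fusion.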 Format: functional, cell-based. In general terms: A reporter such as luciferase makes a cellular process visible.
Assay [18] deals with Heat shock protein HSP 90-alpha (Homo sapiens, UniProt P07900). The assay is described as follows: Luminescence-based dose response biochemical high throughput screening assay for inhibitors of the Heat Shock Protein 90 (HSP90). [Related pubchem assays: 1831 (Summary AID.), 1846 (Confirmation screen.), 1789 (Primary screen.)].
Assay [19] in a line: inhibitors of SNCA 5'UTR-driven reporter translation, confirmation, H4 neuroglioma cells, luminescence (AID 1988). Format: functional, cell-based.
Assay [20] has as its target Eukaryotic translation initiation factor 4H (Homo sapiens, UniProt Q15056). The assay is described as follows: human eIF4H binding inhibitors, primary screen, translation initiation inhibitor project, biochemical, uHTS, fluorescence polarization (AID 2012). On the technique in general: Polarisation of emitted light reports the rotation of a fluorescent probe.
In assay [21] the target is Polyadenylate-binding protein 1 (Homo sapiens, UniProt P11940). The assay is described as follows: PABP poly(A) RNA binding inhibitors, primary screen, biochemical, fluorescence polarization, uHTS (AID 2014).
Chain of Polyadenylate-binding protein 1 (P11940 whole entry): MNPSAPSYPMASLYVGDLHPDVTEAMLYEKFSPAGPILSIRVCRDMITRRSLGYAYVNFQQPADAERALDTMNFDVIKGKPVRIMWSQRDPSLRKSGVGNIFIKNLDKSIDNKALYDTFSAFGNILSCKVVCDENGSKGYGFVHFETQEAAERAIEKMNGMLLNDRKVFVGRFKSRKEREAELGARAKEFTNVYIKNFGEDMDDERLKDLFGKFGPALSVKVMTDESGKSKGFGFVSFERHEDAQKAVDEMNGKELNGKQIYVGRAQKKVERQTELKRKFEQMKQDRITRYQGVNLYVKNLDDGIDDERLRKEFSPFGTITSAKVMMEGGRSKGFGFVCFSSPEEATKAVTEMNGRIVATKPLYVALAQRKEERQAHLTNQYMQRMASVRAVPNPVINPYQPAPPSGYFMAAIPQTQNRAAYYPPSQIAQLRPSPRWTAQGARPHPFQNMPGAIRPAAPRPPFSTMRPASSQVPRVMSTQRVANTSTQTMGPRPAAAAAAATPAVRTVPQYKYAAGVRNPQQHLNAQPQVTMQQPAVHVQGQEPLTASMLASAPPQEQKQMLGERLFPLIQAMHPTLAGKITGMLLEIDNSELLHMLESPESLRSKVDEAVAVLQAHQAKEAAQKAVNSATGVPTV
In assay [22] the target is DNA dC->dU-editing enzyme APOBEC-3A (Homo sapiens, UniProt P31941). The assay is described as follows: Dose Response confirmation of small molecule APOBEC3A DNA Deaminase Inhibitors via a fluorescence-based single-stranded DNA deaminase assay. [Related pubchem assays (depositor defined):AID493011, AID493024]. Format: functional.
Chain of DNA dC->dU-editing enzyme APOBEC-3A (P31941 whole entry): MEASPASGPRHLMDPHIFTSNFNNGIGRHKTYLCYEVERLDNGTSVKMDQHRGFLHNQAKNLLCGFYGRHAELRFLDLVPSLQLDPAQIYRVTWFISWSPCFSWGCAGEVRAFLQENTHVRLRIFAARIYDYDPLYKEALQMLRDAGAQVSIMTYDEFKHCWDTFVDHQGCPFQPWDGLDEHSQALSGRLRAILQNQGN
Assay [23] addresses DNA dC->dU-editing enzyme APOBEC-3G (Homo sapiens, UniProt Q9HC16). Format: functional.
Assay [24] deals with Oxytocin receptor (Homo sapiens, UniProt P30559). The assay is described as follows: Fluorescence-based cell-based high throughput dose response assay for agonists of the Oxytocin Receptor (OXTR). [Related pubchem assays: 2435 (Primary screen (OXTR agonists in singlicate)), 434991 (Counterscreen (V1R agonists in triplicate)), 2482 (Summary (OXTR agonists)), 434963 (Confirmation screen (OXTR agonists in triplicate))]. Format: functional.
Chain of Oxytocin receptor (P30559 whole entry): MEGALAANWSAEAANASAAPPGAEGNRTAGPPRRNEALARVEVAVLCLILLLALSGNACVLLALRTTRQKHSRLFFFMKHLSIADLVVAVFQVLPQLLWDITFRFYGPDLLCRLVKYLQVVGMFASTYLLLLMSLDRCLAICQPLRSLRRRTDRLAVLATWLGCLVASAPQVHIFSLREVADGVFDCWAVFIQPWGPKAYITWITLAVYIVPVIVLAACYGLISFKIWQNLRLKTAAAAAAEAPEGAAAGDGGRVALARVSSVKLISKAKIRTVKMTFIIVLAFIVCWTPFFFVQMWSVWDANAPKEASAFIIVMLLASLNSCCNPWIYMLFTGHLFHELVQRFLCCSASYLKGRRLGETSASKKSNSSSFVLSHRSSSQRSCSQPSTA

The target in assay [25] is Vasopressin V1a receptor (Homo sapiens, UniProt P37288). Kind of assay: Counterscreen for Oxytocin Receptor (OXTR) agonists: Fluorescence-based cell-based high throughput dose response assay to identify agonists of the vasopressin 1 receptor (V1R). [Related pubchem assays: 2435 (Primary screen (OXTR agonists in singlicate)), 434991 (Counterscreen (V1R agonists in triplicate)), 2482 (Summary (OXTR agonists)) …. Format: functional.
Chain of Vasopressin V1a receptor (P37288 whole entry): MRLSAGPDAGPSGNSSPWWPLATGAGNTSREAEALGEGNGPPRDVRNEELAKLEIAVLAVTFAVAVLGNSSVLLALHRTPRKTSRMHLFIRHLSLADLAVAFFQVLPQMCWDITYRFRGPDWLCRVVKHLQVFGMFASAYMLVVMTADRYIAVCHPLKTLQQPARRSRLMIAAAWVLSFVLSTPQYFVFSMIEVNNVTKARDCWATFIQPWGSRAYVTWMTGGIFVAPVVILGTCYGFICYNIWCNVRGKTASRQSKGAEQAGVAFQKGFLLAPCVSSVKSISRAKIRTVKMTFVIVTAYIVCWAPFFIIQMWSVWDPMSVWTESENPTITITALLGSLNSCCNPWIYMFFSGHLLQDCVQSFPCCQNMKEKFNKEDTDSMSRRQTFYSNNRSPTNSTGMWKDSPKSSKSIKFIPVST

In assay [26] the target is Cytochrome P450 2C9 (Homo sapiens, UniProt P11712). Particulars: Potency.
Chain of Cytochrome P450 2C9 (P11712 whole entry): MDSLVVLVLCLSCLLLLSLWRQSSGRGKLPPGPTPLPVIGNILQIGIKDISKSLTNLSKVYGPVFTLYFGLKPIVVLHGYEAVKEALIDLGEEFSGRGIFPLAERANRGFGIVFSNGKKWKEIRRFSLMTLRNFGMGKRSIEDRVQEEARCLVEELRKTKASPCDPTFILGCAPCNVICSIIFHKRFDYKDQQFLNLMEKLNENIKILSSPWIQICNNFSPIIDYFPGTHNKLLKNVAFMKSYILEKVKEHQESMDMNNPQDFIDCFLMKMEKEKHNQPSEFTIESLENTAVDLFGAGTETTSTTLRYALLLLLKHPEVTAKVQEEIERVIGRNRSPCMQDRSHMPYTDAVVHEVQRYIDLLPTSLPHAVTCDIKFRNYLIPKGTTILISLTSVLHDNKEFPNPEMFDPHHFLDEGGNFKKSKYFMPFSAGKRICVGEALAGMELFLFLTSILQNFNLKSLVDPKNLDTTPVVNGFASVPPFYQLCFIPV

Activity calls are given as the source filed them.

Chain of Procathepsin L (P07711 whole entry): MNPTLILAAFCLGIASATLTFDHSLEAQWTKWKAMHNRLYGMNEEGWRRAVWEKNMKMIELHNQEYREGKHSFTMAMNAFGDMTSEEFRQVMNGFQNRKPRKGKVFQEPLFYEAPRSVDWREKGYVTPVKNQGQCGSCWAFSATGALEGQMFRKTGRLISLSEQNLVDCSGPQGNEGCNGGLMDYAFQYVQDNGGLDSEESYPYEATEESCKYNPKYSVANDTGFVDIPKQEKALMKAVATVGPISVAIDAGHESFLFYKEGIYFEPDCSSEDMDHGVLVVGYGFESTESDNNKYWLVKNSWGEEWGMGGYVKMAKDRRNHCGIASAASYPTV
Chain of Aspartyl aminopeptidase (Q8I2J3 whole entry): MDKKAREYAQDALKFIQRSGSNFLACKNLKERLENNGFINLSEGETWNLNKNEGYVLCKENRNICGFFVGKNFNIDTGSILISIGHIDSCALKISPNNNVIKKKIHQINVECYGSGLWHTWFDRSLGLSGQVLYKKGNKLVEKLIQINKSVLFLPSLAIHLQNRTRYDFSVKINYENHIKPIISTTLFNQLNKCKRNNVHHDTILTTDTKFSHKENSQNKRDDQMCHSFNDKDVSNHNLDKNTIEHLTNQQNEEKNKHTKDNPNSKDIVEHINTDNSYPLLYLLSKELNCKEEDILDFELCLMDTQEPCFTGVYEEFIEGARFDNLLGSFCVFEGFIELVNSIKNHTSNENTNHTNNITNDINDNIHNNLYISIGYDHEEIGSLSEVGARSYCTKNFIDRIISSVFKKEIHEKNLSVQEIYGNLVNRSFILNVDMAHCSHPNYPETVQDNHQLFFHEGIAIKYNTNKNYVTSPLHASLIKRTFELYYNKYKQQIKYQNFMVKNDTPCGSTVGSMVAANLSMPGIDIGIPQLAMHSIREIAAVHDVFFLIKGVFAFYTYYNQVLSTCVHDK
Chain of DNA dC->dU-editing enzyme APOBEC-3G (Q9HC16 whole entry): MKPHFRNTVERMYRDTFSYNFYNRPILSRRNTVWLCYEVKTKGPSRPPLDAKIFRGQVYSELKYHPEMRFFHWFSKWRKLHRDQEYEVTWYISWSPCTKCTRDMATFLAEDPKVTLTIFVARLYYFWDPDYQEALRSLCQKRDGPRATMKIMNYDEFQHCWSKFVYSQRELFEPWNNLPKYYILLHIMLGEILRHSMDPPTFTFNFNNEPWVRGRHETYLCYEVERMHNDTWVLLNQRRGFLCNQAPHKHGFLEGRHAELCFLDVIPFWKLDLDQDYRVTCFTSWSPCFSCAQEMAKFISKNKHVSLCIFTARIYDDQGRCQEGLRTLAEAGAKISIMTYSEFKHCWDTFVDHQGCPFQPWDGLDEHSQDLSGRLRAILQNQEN

One may read the IC50 as the concentration that gives 50% inhibition. With `CCC(C)c1ccc(O)c(N)c1` (stereo unspecified), the IC50 in assay [1] was 2.25 µM (active); in assay [2], > 59.6 µM (not active).

In the case of `COc1cc(C(S)=NC2CCCCC2)ccc1O`, the IC50 in [3] was 32.6 µM (active); in assay [4], 22.5 µM (active); in assay [5], 2.82 µM (active); in assay [6] it was > 100 µM (inactive); in assay [7] it was 3.4 µM (active); in assay [8] it was > 100 µM (inactive).

With `COC1(NS(=O)(=O)c2ccc(Br)cc2)C(C)=CC(=O)C=C1C`, in [9], the IC50 is > 80 µM (inactive).

In general, EC50 refers to the concentration giving half of the maximal effect. One may read the AC50 as the concentration at which the activity in the assay is half-maximal. For `COc1cc(/C=C/[N+](=O)[O-])ccc1OCc1cccc(C(=O)O)c1`, the concentration giving a half-maximal response (EC50) was 0.937 µM (active) in assay [10]; 2.43 µM (inconclusive) in assay [12]; < 0.1 µM (active) in assay [13]; > 12 µM (inconclusive) in [16]; 0.99 µM (active) in [17]; 0.161 µM (active) in [19]. For the same molecule, the IC50 in [11] is > 39.8 µM (not active); in [15], > 80 µM (inactive); in assay [18], 7.32 µM (active). Moreover, the AC50 in assay [14] is 11.9 µM (active).

Take `Cn1c(SCC(=O)N2CCOCC2)nnc1-c1cccc(NC(=O)c2ccccc2)c1`: the IC50 is > 100 µM (inactive) in assay [20], 2.81 µM (active) in assay [21], 2.62 µM (active) in [22] and 3.37 µM (active) in assay [23].

In the case of `COc1ccc(C2SCCN2C(S)=Nc2cccc(Cl)c2)cc1` (stereo unspecified), the EC50 in assay [24] and in assay [25] was > 29.9 µM (not active) throughout.

Take `c1csc(CNc2ncnc3ccc(-c4ccc5c(c4)OCO5)cc23)c1`: in assay [26], the AC50 was 0.794 µM (inconclusive).
